For five compounds, IC50 and inhibition results are on record in ChEMBL document CHEMBL5226354, “The Medicinal Chemistry and Therapeutic Potential of LRH-1 Modulators” (J Med Chem, 2021).

Assay [1] concerns the target T1, Nuclear receptor subfamily 5 group A member 2 (Homo sapiens, UniProt O00482). Description: Inhibition of full length LRH1 transfected in HEK293T cells incubated for 20 hrs by luciferase reporter assay. The format is cell-based. A general note: Reporter assays use an easily measured gene product as a stand-in for the process of interest.
Assay [2] concerns the target T1, Nuclear receptor subfamily 5 group A member 2. The experiment in a line: Inhibition of full length LRH1 in HEK293T cells at 10 uM incubated for 20 hrs by luciferase reporter assay relative to control. Type of assay: cell-based.
For assay [3] the target is unchanged. Description: Antagonist activity at human LRH-1.
The target is the same in assay [4]. Description: Inhibition of full length LRH1 in HEK293T cells at 550 nM incubated for 20 hrs by luciferase reporter assay relative to control. The format is cell-based.
For assay [5] the target is unchanged. The experiment in a line: Antagonist activity at human recombinant LRH-1 LBD ([…] to 541 residues).

T1 sequence (O00482 whole entry): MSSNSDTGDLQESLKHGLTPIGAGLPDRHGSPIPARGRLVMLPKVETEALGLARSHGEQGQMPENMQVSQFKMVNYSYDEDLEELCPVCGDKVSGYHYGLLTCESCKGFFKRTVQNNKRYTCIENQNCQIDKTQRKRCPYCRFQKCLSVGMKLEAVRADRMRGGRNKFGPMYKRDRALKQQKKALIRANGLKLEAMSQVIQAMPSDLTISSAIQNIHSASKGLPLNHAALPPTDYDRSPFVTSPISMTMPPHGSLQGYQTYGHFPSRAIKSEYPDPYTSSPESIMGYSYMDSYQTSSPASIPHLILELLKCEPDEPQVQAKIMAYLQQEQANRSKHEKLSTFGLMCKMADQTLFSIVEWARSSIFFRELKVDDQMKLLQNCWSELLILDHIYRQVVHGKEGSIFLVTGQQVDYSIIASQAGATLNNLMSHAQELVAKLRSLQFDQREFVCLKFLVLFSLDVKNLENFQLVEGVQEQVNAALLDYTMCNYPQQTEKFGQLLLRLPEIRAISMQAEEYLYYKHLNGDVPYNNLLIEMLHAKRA

In the case of `O=c1cc(N2CCN(c3cccc(Cl)c3)CC2)[nH]c(=O)n1C1CCCCC1`, in assay [1], the IC50 (as a rule, the concentration that gives 50% inhibition) amounted to 3.7 µM. For the same compound, the inhibition – broadly, the change of the read-out against control, counted positive when it falls – in assay [2] turned out to be 64%.

For `Cc1nc(N(C)C)nc(-c2cccc(-c3ccn(CCN(C)C)n3)c2)c1C`, in assay [3], inhibition was half-maximal at 6 µM (IC50).

On to `O=c1cc(N2CCN(c3cccc(C(F)(F)F)c3)CC2)[nH]c(=O)n1C1CCCCC1`, for which the inhibition in assay [4] turned out to be 40%. In assay [1], this compound had an IC50 of 0.32 µM.

For the compound `O=C(c1ccc(OCCN2CCCCC2)cc1)c1c(-c2ccc(O)cc2)sc2c(C(=O)c3ccc(OCCN4CCCCC4)cc3)c(O)ccc12`, in assay [5], the IC50 worked out at 3.1 µM.

The compound `CC(=O)c1cccc(-c2cccc(-c3ccn(CCN4CCOCC4)n3)c2)c1` came in with an IC50 in assay [3] of 5 µM.
